Read-outs that look alike come from different tables or passages of the source.
Legend:
[1] = system: HCV genotype 1a replicon, NS5A Y93N; assay: Transient replication assay, GT1a NS5A Y93N; type: cell-based; conditions: Hepatitis C virus
[2] = system: HCV genotype 1a replicon, NS5A P32L; assay: Transient replication assay, GT1a NS5A P32L; type: cell-based; conditions: Hepatitis C virus
[3] = system: HCV genotype 1a replicon, NS5A K24R; assay: Transient replication assay, GT1a NS5A K24R; type: cell-based; conditions: Hepatitis C virus
HCV GT 2a-J6 replicon = assay: HCV replicon assay, GT2a chimeric replicon expressing NS5A from GT2a strain J6; type: cell-based; conditions: Hepatitis C virus
Method in brief: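 Stable Huh-7.5 lines carried JFH-1 subgenomic replicons with hRluc-Neo reporter, in which NS5A was swapped for GT3a strain S52 or GT2a strain J6 NS5A. Renilla luciferase was read after 72 h relative to DMSO controls.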

[4] = IV and PO single dose pharmacokinetic studies in SD rats; type: in vivo; conditions: Sprague-Dawley, rat, plasma, male SD rats
Procedure: The pharmacokinetics of selected compounds was characterized in male Sprague-Dawley (SD) rats (250-300 g). […] The intravenous (IV) dosing vehicle was 5% ethanol and 95% of 20% 2-hydroxypropyl β-cyclodextrin in water. The oral dosing vehicle was 33% of Microemulsion Preconcentrate #5 (a lipid based self-emulsifying drug delivery system, SEDDS) and 67% of 50 mM citrate buffer (final pH 3.6).
Serial blood samples (approximately 0.3 mL each) were collected from jugular vein or other suitable vein at specified time points. For the IV dosing group, the blood samples were collected predose and at 0.08, 0.25, 0.50, 1, 3, 6, 8, and 24 hours after the start of dosing. For the oral group, the blood samples were collected predose and at 0.08, 0.25, 0.50, 1, 3, 6, 8, and 24 hours after dosing. The blood samples were collected into VACUTAINER™ tubes containing EDTA-K3 as the anti-coagulant and were centrifuged at approximately 4° C. to obtain plasma. The plasma samples were stored at −20° C. until analysis by LC/MS/MS.
A bioanalytical method utilizing high performance liquid chromatography coupled to tandem mass spectrometry (LC/MS/MS) was developed for analysis of the selected compound in rat plasma. Detection was performed using multiple reaction monitoring (MRM); Ions representing the precursor (M+H)^+ species was selected in quadrupole 1 (Q1) and collided with nitrogen gas in the collision cell (Q2) to generate specific product ion, which was subsequently monitored by quadrupole 3 (Q3). Standard curve and quality control samples were prepared in male rat plasma and processed in the same way as the test samples to generate quantitative data.
Pharmacokinetic parameters were generated using non-compartmental pharmacokinetic analysis (Phoenix WinNonlin, version 6.3). Values below the lower limit of quantification (LLOQ) were assigned a value of zero if predose and treated as missing thereafter. Area under the curve (AUC) was calculated using the linear trapezoidal rule. The oral bioavailability (% F) was determined by comparison of the area under the curve (AUC) of the compound in plasma following oral administration to that generated following intravenous administration.

[5] = oral gavage 20 mg/kg vs IV bolus 2 mg/kg

| Structure (SMILES) | EC50 (HCV GT 2a-J6 replicon; 72 h, read-out: EC50 2a J6) [nM] | bioavailability [4, 5] [%] | other results |
| --- | --- | --- | --- |
| COC(=O)N[C@H](C(=O)N1CCC[C@H]1c1nc(-c2ccc(-c3ccc(-c4c[nH]c([C@@H]5CCCN5C(=O)[C@@H](NC(=O)OC)C(C)C)n4)cc3)cc2)c[nH]1)C(C)C [Daclatasvir, reference compound] | – | – | EC50 [1]: 119 nM; EC50 [2]: 1.9 nM; EC50 [3]: 0.011 nM |
| COC(=O)N[C@H](C(=O)N1CC2(CC2)C[C@H]1c1nc2ccc3cc(-c4ccc5c(ccc6nc([C@@H]7C[C@@]8(CCCOC8)CN7C(=O)[C@@H](NC(=O)OC)C(C)C)[nH]c65)c4)ccc3c2[nH]1)C(C)C [Compound 7] | 0.3 | 2.5 | – |
| COC(=O)N[C@H](C(=O)N1C[C@]2(CCCOC2)C[C@H]1c1nc2ccc3cc(-c4ccc(-c5cnc([C@@H]6C[C@@H]7C[C@@H]7N6C(=O)[C@@H](NC(=O)OC)C(C)C)[nH]5)cc4)ccc3c2[nH]1)C(C)C [Compound 22] | 6 | 9.4 | – |
| COC(=O)N[C@H](C(=O)N1C[C@]2(CCCOC2)C[C@H]1c1nc2ccc3cc(-c4ccc(-c5cnc([C@@H]6C[C@@H]7COC[C@@H]7N6C(=O)[C@@H](NC(=O)OC)C(C)C)[nH]5)cc4)ccc3c2[nH]1)C(C)C [Compound 34] | 0.7 | 2.1 | – |
| COC(=O)N[C@H](C(=O)N1C[C@]2(CCCOC2)C[C@H]1c1ncc(-c2ccc(-c3ccc4c(ccc5nc([C@@H]6CCCN6C(=O)[C@@H](NC(=O)OC)C(C)C)[nH]c54)c3)cc2)[nH]1)C(C)C [drawing 233] | – | – | EC50 (HCV GT 2a-J6 replicon; read-out: EC50 (nM) 2a-J6): 0.6 nM; bioavailability ([4]; comparative table, oral 20 mg/kg vs IV): 7% |
| COC(=O)N[C@H](C(=O)N1C[C@]2(CCCOC2)C[C@H]1c1ncc(-c2ccc(-c3ccc4c(ccc5nc([C@@H]6C[C@@H]7CCC[C@@H]7N6C(=O)[C@@H](NC(=O)OC)C(C)C)[nH]c54)c3)cc2)[nH]1)C(C)C [Compound 16] | 0.8 | 23.7 | EC50 [1]: 19 nM; EC50 [2]: 0.046 nM; EC50 [3]: 0.0012 nM |
| COC(=O)N[C@H](C(=O)N1C[C@]2(CCCOC2)C[C@H]1c1nc2ccc3cc(-c4ccc(-c5cnc([C@@H]6C[C@H]7C[C@H]7N6C(=O)[C@@H](NC(=O)OC)C(C)C)[nH]5)cc4)ccc3c2[nH]1)C(C)C [Compound 5] | 3 | 12.2 | – |
| COC(=O)N[C@H](C(=O)N1C[C@]2(CCCOC2)C[C@H]1c1nc2ccc3cc(-c4ccc(-c5cnc([C@@H]6C[C@@H]7CCCC[C@@H]7N6C(=O)[C@@H](NC(=O)OC)C(C)C)[nH]5)cc4)ccc3c2[nH]1)C(C)C [Compound 24] | 0.3 | 7.9 | – |
| COC(=O)N[C@H](C(=O)N1CCC[C@H]1c1ncc(-c2ccc(-c3ccc4c(ccc5nc([C@@H]6C[C@@]7(CCCOC7)CN6C(=O)[C@@H](NC(=O)OC)C(C)C)[nH]c54)c3)cc2)[nH]1)C(C)C [Compound 44] | 1 | 14.8 | – |
| COC(=O)N[C@H](C(=O)N1CCC[C@H]1c1ncc(-c2ccc(-c3ccc4c(ccc5nc([C@@H]6C[C@]7(CCOC7)CN6C(=O)[C@@H](NC(=O)OC)C(C)C)[nH]c54)c3)cc2)[nH]1)C(C)C [Compound 51] | 4 | 8.6 | – |
| COC(=O)N[C@H](C(=O)N1C[C@]2(CCCOC2)C[C@H]1c1ncc(-c2ccc(-c3ccc4c(ccc5nc([C@@H]6C[C@@H]7COC[C@@H]7N6C(=O)[C@@H](NC(=O)OC)C(C)C)[nH]c54)c3)cc2)[nH]1)C(C)C [Compound 35] | 2 | 1.1 | – |
| COC(=O)N[C@H](C(=O)N1C[C@]2(CCCOC2)C[C@H]1c1nc2ccc3cc(-c4ccc5c(ccc6nc([C@@H]7C[C@@H]8C[C@@H]8N7C(=O)[C@@H](NC(=O)OC)C(C)C)[nH]c65)c4)ccc3c2[nH]1)C(C)C [Compound 21] | 2 | 3.4 | – |
| COC(=O)N[C@H](C(=O)N1C[C@]2(CCCOC2)C[C@H]1c1nc2ccc3cc(-c4ccc5c(ccc6nc([C@@H]7C[C@H]8C[C@H]8N7C(=O)[C@@H](NC(=O)OC)C(C)C)[nH]c65)c4)ccc3c2[nH]1)C(C)C [Compound 6] | 0.07 | 3.5 | – |
| COC(=O)N[C@H](C(=O)N1C[C@]2(CCCOC2)C[C@H]1c1ncc(-c2ccc(-c3ccc4c(ccc5nc([C@@H]6CCCN6C(=O)[C@@H](NC(=O)OC)C(C)C)[nH]c54)c3)cc2)[nH]1)C(C)C [Compound 47] | 0.6 | 7 | – |
